Data as given in ChEMBL document CHEMBL1137784, “L337H mutant of rat neuronal nitric oxide synthase resembles human neuronal nitric oxide synthase toward inhibitors” (J Med Chem, 2009).
pIC50: −log10 of the molar value.

Experiments:
[1] = species: Rattus norvegicus; test: Selectivity ratio of IC50 for wild type rat nNOS to IC50 for rat nNOS L337H mutant by hemoglobin capture assay
[2] = molecular target: T1, Nitric oxide synthase 1 (Homo sapiens, UniProt P29475); test: Inhibition of human nNOS by hemoglobin capture assay
T1 sequence (P29475 whole entry): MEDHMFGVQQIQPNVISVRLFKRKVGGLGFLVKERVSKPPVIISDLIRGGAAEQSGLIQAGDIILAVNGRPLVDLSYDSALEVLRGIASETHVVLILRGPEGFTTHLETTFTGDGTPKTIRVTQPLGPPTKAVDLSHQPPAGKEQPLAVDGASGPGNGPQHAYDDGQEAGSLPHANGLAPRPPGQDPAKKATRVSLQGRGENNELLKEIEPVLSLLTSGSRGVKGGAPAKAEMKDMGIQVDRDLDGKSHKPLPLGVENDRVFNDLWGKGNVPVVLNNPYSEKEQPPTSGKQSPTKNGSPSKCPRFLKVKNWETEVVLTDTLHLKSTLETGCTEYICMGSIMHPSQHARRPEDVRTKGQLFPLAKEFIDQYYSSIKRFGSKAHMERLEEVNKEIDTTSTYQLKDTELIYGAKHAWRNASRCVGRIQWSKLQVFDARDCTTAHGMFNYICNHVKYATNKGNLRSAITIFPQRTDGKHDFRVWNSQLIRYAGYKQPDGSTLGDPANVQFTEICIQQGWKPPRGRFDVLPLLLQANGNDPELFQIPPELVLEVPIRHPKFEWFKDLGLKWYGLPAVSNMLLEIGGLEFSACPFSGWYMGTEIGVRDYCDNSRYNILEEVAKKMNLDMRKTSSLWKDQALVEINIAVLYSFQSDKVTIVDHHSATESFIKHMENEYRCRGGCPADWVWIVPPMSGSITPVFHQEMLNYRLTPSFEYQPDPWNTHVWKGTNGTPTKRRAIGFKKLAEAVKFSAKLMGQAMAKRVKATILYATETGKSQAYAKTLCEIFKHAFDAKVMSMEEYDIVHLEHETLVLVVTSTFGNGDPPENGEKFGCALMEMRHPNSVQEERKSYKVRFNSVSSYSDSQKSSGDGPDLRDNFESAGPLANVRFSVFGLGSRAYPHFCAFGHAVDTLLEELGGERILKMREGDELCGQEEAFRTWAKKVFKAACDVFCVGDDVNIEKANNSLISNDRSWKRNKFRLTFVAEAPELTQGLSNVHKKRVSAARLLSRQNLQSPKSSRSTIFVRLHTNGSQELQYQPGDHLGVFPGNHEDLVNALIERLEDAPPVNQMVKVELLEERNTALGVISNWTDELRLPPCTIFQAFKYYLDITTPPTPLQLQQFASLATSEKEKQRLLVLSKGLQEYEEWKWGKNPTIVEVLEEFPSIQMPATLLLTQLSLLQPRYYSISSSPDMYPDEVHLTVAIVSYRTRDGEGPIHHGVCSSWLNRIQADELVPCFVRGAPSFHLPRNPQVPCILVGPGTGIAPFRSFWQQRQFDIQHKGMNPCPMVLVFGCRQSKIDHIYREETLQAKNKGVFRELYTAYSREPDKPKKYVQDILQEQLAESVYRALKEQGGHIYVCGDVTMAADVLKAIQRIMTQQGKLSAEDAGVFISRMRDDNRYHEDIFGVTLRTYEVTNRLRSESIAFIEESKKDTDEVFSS

[3] = molecular target: Nitric oxide synthase 1 (Rattus norvegicus, UniProt P29476); test: Inhibition of wild type rat nNOS by hemoglobin capture assay
Nitric oxide synthase 1 (Rattus norvegicus, UniProt P29476), sequence (P29476 whole entry): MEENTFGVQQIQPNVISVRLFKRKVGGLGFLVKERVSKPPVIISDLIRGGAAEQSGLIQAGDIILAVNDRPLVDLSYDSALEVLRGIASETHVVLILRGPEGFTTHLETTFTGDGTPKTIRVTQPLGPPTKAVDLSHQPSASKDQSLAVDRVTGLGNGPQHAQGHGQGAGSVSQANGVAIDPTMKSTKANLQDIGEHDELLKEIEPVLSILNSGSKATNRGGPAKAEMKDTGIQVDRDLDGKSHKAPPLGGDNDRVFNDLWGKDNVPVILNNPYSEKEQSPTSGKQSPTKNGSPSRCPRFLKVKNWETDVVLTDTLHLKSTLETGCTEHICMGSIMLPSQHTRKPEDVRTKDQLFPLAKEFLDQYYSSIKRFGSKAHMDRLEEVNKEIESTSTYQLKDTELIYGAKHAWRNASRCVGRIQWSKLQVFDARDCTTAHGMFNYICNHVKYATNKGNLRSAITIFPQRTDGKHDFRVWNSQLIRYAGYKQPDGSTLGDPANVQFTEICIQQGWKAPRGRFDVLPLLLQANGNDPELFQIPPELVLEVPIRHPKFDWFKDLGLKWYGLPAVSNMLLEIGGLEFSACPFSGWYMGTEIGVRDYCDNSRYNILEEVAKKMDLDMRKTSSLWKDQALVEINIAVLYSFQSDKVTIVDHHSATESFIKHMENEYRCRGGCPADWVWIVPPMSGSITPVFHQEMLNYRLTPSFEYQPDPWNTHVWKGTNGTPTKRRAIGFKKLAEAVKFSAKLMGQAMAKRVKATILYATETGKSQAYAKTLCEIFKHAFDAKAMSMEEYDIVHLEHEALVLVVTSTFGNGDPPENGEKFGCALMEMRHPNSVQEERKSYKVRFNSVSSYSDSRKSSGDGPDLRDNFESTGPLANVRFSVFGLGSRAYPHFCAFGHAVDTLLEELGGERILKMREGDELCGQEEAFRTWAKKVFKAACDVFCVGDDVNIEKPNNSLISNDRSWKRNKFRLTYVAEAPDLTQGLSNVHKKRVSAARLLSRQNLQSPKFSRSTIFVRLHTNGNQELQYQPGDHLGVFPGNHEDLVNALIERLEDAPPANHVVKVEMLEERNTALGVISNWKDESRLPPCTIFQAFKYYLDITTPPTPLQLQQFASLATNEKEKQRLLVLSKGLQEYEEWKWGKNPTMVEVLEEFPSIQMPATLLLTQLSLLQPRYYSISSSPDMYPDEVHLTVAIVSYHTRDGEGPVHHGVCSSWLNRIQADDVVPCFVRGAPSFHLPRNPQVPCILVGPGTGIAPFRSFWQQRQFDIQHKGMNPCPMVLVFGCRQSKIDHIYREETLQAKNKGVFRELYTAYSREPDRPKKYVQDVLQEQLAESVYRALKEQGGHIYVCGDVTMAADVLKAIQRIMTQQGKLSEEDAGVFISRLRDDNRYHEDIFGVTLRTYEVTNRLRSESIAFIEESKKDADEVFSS

[4] = molecular target: Nitric oxide synthase 1 (Rattus norvegicus, UniProt P29476, L337H)
Nitric oxide synthase 1 (Rattus norvegicus, UniProt P29476, L337H), sequence (P29476 whole entry L337H): as the sequence (P29476 whole entry) above, with L337H counted along it

[5] = Selectivity ratio of IC50 for wild type rat nNOS to IC50 for human nNOS by hemoglobin capture assay
[6] = molecular target: T1, Nitric oxide synthase 1; test: Inhibition of human nNOS by radioactivity assay

Row | Structure (SMILES) | Ratio IC50 [1] | pIC50 [2] | pIC50 [3] | pIC50 [4] | Ratio IC50 [5] | pIC50 [6]
1 | Cc1cc(N)nc(CC2CNCC2OCCNCCc2cccc(F)c2)c1 (racemic) |  | 6.22 |  |  |  | 6.15
2 | NCCNC1CNCC1Cc1cccc(N)n1 (racemic) |  | 4.82 |  |  |  | 
3 | Cc1cc(N)nc(CC2CNCC2NCCOCCc2cccc(F)c2)c1 (racemic) | 1.9 | 5.18 | 5.54 | 5.26 | 2.4 | 
4 | Cc1cc(N)nc(CC2CNCC2NC(=O)CNCCc2cccc(F)c2)c1 (racemic) | 5.7 | 5.52 | 6.15 | 5.40 | 4.3 | 
5 | Cc1cc(N)nc(CC2CNCC2NCCNCCc2ccc(Cl)cc2)c1 (racemic) | 4.6 | 5.38 | 5.96 | 5.30 | 3.8 | 

The remaining compounds from weak to strong by pIC50 [2], led by results:

Row | Ratio IC50 [1] | pIC50 [2] | pIC50 [3] | pIC50 [4] | Ratio IC50 [5] | pIC50 [6] | Structure (SMILES)
6 | 2.7 | 5.40 | 5.89 | 5.47 | 3.1 |  | Cc1cc(N)nc(CC2CNCC2NCCN)c1 (racemic)
7 | 1.1 | 7.00 | 7.00 | 7.00 | 1 |  | Cc1cc(C)nc(N)c1
